These are literature values, as cited in patent US11642339B2 (THERAVANCE BIOPHARMA R&D IP, LLC, priority 2017, dated 2023).

The structures appear in SMILES notation.

Series [1] has as its system patients with functional dyspepsia. The settings on record: Japan, placebo 35%; cited from earlier work.
The test system of series [2] is patients on daily therapy. The note with it: long-term use; cited from earlier work.
For series [3], the system named is patients with functional dyspepsia. The note with it: after 4 weeks of treatment; placebo 12.7%; cited from earlier work.

Consider `COc1cc(O)c(C(=O)Nc2nc(C(=O)NCCN(C(C)C)C(C)C)cs2)cc1OC` [Acotiamide], for which the “patients with symptom improvement” value in series [1] is listed as 52%. Take `CCN(CC)CCNC(=O)c1cc(Cl)c(N)cc1OC` [metoclopramide]: in series [2], the “patients with adverse CNS effects” value is “up to 30%”. As to `O=C1[C@@H]2[C@H]3CC[C@H](C3)[C@@H]2C(=O)N1CCCCN1CCN(c2ncccn2)CC1` [tandospirone], in series [3], the response rate is reported as 31.5%.
